Tests used:
Assay in all cases: relative viability (nuclei count vs DMSO), 5 days (fraction); higher = more cells survive
ABC-1 = system: ABC-1
Summary of the method: (§1)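 One day after seeding in 1536-well plates, lung cancer cell lines were dosed by pin tool. Dosing was either single-drug or a fixed anchor-drug dose plus five library-drug doses (not always all listed) in √10 steps. After 5 days, nuclei were stained in one fix-and-stain step and counted on 4× images, and relative viability is the nuclei count of treated wells over that of vehicle wells, given as the median of duplicate plates.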

ChaGo-K-1 = system: ChaGo-K-1
Summary of the method: as §1

HCC-78 = system: HCC-78
Summary of the method: as §1

HOP-62 = system: HOP-62
Summary of the method: as §1

LCLC-97TM1 = system: LCLC-97TM1
Summary of the method: as §1

LOU-NH91 = system: LOU-NH91
Summary of the method: as §1

NCI-H1355 = system: NCI-H1355
Summary of the method: as §1

NCI-H1437 = system: NCI-H1437
Summary of the method: as §1

NCI-H1755 = system: NCI-H1755
Summary of the method: as §1

NCI-H1792 = system: NCI-H1792
Summary of the method: as §1

NCI-H2009 = system: NCI-H2009
Summary of the method: as §1

NCI-H2023 = system: NCI-H2023
Summary of the method: as §1

## O=C(O)CCCCC(CCSCc1ccccc1)SCc1ccccc1 (stereo unspecified) [CPI-613] + Cc1nc(Nc2ncc(C(=O)Nc3c(C)cccc3Cl)s2)cc(N2CCN(CCO)CC2)n1 [Dasatinib] (partner 0.075 µM)
ABC-1; first compound 5 µM
  relative viability: 0.561
ABC-1; first compound 50 µM
  relative viability: 0.527
ABC-1; first compound 158.11 µM
  relative viability: 0.232
ABC-1; first compound 500 µM
  relative viability: 0.196
ChaGo-K-1; first compound 5 µM
  relative viability: 0.583
ChaGo-K-1; first compound 15.81 µM
  relative viability: 0.594
ChaGo-K-1; first compound 50 µM
  relative viability: 0.594
ChaGo-K-1; first compound 158.11 µM
  relative viability: 0.336
ChaGo-K-1; first compound 500 µM
  relative viability: 0.146
HCC-78; first compound 5 µM
  relative viability: 0.358
HCC-78; first compound 15.81 µM
  relative viability: 0.272
HCC-78; first compound 50 µM
  relative viability: 0.408
HCC-78; first compound 158.11 µM
  relative viability: 0.339
HCC-78; first compound 500 µM
  relative viability: 0.342
HOP-62; first compound 5 µM
  relative viability: 0.625
HOP-62; first compound 15.81 µM
  relative viability: 0.68
HOP-62; first compound 50 µM
  relative viability: 0.659
HOP-62; first compound 158.11 µM
  relative viability: 0.521
HOP-62; first compound 500 µM
  relative viability: 0.0443
LCLC-97TM1; first compound 5 µM
  relative viability: 0.843
LCLC-97TM1; first compound 15.81 µM
  relative viability: 0.901
LCLC-97TM1; first compound 50 µM
  relative viability: 0.791
LCLC-97TM1; first compound 158.11 µM
  relative viability: 0.634
LCLC-97TM1; first compound 500 µM
  relative viability: 0.0334
LOU-NH91; first compound 5 µM
  relative viability: 0.564
LOU-NH91; first compound 15.81 µM
  relative viability: 0.475
LOU-NH91; first compound 50 µM
  relative viability: 0.532
LOU-NH91; first compound 158.11 µM
  relative viability: 0.481
LOU-NH91; first compound 500 µM
  relative viability: 0.499
NCI-H1355; first compound 5 µM
  relative viability: 0.682
NCI-H1355; first compound 15.81 µM
  relative viability: 0.697
NCI-H1355; first compound 50 µM
  relative viability: 0.701
NCI-H1355; first compound 158.11 µM
  relative viability: 0.53
NCI-H1355; first compound 500 µM
  relative viability: 0.375
NCI-H1437; first compound 5 µM
  relative viability: 0.388
NCI-H1437; first compound 15.81 µM
  relative viability: 0.314
NCI-H1437; first compound 50 µM
  relative viability: 0.381
NCI-H1437; first compound 500 µM
  relative viability: 0.304
NCI-H1755; first compound 5 µM
  relative viability: 0.406
NCI-H1755; first compound 15.81 µM
  relative viability: 0.41
NCI-H1755; first compound 50 µM
  relative viability: 0.446
NCI-H1755; first compound 158.11 µM
  relative viability: 0.464
NCI-H1755; first compound 500 µM
  relative viability: 0.225
NCI-H1792; first compound 5 µM
  relative viability: 0.772
NCI-H1792; first compound 15.81 µM
  relative viability: 0.748
NCI-H1792; first compound 50 µM
  relative viability: 0.789
NCI-H1792; first compound 158.11 µM
  relative viability: 0.669
NCI-H1792; first compound 500 µM
  relative viability: 0.766
NCI-H2009; first compound 5 µM
  relative viability: 0.277
NCI-H2009; first compound 15.81 µM
  relative viability: 0.264
NCI-H2009; first compound 50 µM
  relative viability: 0.278
NCI-H2009; first compound 158.11 µM
  relative viability: 0.0869
NCI-H2009; first compound 500 µM
  relative viability: 0.029
NCI-H2023; first compound 5 µM
  relative viability: 0.552
NCI-H2023; first compound 15.81 µM
  relative viability: 0.457
NCI-H2023; first compound 50 µM
  relative viability: 0.483

From the supplement of paper PMC10307832
